# US20090047278A1, “Novel Combinational Use of Sulfonamide Compound” (Eisai R & D Management Co., Ltd., priority 2005, published 2009)
# Legend:
# HCT116 cells = assay: DNA microarray analysis of gene expression changes, correlation and cluster analysis (Example 8); format: cell-based, human; conditions: HCT116, 24 hours, at twice the 50% growth inhibitory concentration; different from profiles of the other six compounds
# Method: HCT116 cells were cultured in an RPMI-1640 medium supplemented with 10% fetal bovine serum, 100 units/ml penicillin and 100 μg/ml streptomycin. The following cultivation and compound treatment were carried out in an incubator at 5% CO2 and 37° C. HCT116 cells were seeded in 10 cm-diameter cell culture dishes at 2.0×10^6 cells/dish, cultured for 24 hours and subjected to the following compound treatment.
# In this example, changes in the gene expression of HCT116 cells upon treatments with 12 compounds, i.e., E7820 (0.16 μM), E7070 (0.26 μM), LY186641 (59 μM), LY295501 (24 μM), LY-573636 (9.6 μM), CQS (4.0 μM), MST16 (100 μM), etoposide (3.6 μM), ethoxzolamide (410 μM), capsaicin (280 μM), trichostatin A (0.16 μM) and kenpaullone (7.1 μM) were examined.
# The concentration of each compound used for the treatment was set to twice the 50% growth inhibitory concentration of each compound to the HCT116 cells (based on three days of antiproliferative activity using MTT). The cells were collected 24 hours after the treatment at the concentration indicated in parentheses following each compound name above. Similarly, cells cultured for 24 hours without the addition of any compound were also collected.
# Total RNA extraction from the collected cells was performed using TRIZOL reagent (Invitrogen) according to the attached instruction.
# Gene expression analysis using a DNA microarray was carried out in the same manner as “(2) Analysis of gene expression using DNA microarray” in Example 7.
# This example was conducted for each sample in duplicate (for the convenience of the experiment, samples were given branch numbers like control-1, control-2, E7070-1, E7070-2 and so on for distinction). Then, GeneChip (Affymetrix) system (Human Focus array) was used for analyzing changes in the gene expression induced by each compound.
# Twenty-six “.cel” files obtained in this example (13 samples (a control+12 compounds)×2) were subjected to RMA method (robust multi-array average method (Biostatistics (2003), 4, 249-264)) for normal distribution at probe level, and then the logarithm value of the signal intensity at gene level was calculated. Next, the logarithm value of the signal intensity of the untreated group (control-1) was subtracted from the logarithm value of the signal intensity of the compound-treated group for each gene to obtain the logarithm value of the signal ratio of the compound-treated group to control-1. Then, cosine correlation coefficients were calculated as correlation coefficients between the experiments (FIG. 9). Based on these correlation coefficients, hierarchical cluster analysis was performed according to UPGMA method (Unweighted Pair Group Method with Arithmetic mean method) (FIG. 10). Control-2 was also subjected to similar calculation (FIGS. 11 and 12). The softwares used were R 2.0.1 (http://www.r-project.org/) and affy package 1.5.8 (http://www.bioconductor.org).
# HCT116-C9 = assay: Cross-resistance in E7070-resistant cell line, antiproliferative activity by MTT method; format: cell-based, human; conditions: Example 11, 72 hours
# Method: An E7070-resistant cell line was used to assess the antiproliferative activities of E7820, LY186641, LY295501, LY-ASAP and CQS. HCT116-C9 was a substrain separated from human colon cancer-derived HCT116 (American Type Culture Collection, Manassas, Va., U.S.A.). This HCT116-C9 was cultured in the presence of E7070 while increasing the E7070 concentration by degrees, thereby obtaining E7070-resistant substrains HCT116-C9-C1 and HCT116-C9-C4 (Molecular Cancer Therapeutics, 2002, 1, 275-286).
# Three cell lines, i.e., HCT116-C9, HCT116-C9-C1 and HCT116-C9-C4, were each seeded at 3000 cells/well onto a 96-well microplate (flat bottom) (50 μl/well). Twenty-four hours later, they were added with a 3-fold dilution series of each compound (50 μl/well). Seventy-two hours later, the antiproliferative activities were assessed by MTT method (Mossmann T., J. Immunol. Methods, 1983, 65, 55-63). The 50% growth inhibitory concentrations to the cancer cells were obtained by a least square method.
# In exactly the same manner as in Example 10, an E7070-resistant cell line was used to assess the antiproliferative activities of LY573636 as well as those of E7070.
# [1] = test system: human non-small-cell lung cancer cell line (PC9); assay: E7820 and gefitinib in subcutaneous transplant model of PC9; format: in vivo; conditions: PC9 s.c. in nude mouse; oral; E7820 50 mg/kg twice a day, gefitinib 75 mg/kg once a day, 2 weeks; Day 1 = first administration
# Method: (§1) Using a phosphate buffer, 5×10^7 cells/mL suspension was prepared, and 0.1 mL each of the resulting cell suspension was subcutaneously transplanted to a nude mouse at the side of its body. Eight days after the transplantation, E7820 and gefitinib were orally administered alone or in combination for 50 mg/kg twice a day for 2 weeks and for 75 mg/kg once a day for 2 weeks, respectively. The major and minor axes of tumors were measured with Digimatic caliper (Mitsutoyo), and tumor volumes and relative tumor volumes were calculated according to the following formulae.
# (§2) Tumor Volume TV=Major axis of tumor(mm)×(Minor axis of tumor)^2(mm^2)/2
# (§3) Relative Tumor Volume RTV=Tumor volume on measurement day/Tumor volume on the first administration day
# [2] = test system: human non-small-cell lung cancer cell line (A549); assay: E7820 and gefitinib in subcutaneous transplant model of A549; format: in vivo; conditions: A549 s.c. in nude mouse; oral; E7820 50 mg/kg twice a day, gefitinib 75 mg/kg once a day, 3 weeks; Day 1 = first administration
# Method: as §1, with “Human non-small-cell lung cancer cell line A549 (purchased from Dainippon Pharmaceutical) was cultured in RPMI1640 (containing 10% FBS) in a 5% carbon dioxide incubator at 37° C. to about 80% confluence, and the cells were collected with trypsin-EDTA. Using” for “Using”, “phosphate buffer containing 50% matrigel,” for “phosphate buffer,”, “body. Ten” for “body. Eight”, “for 3” for “for 2”
# Tumor Volume TV=Major axis of tumor(mm)×(minor axis of tumor)^2(mm^2)/2
# as §3
# [3] = test system: human non-small-cell lung cancer cell line (A549); assay: E7820 and erlotinib in subcutaneous transplant model of A549; format: in vivo; conditions: A549 s.c. in nude mouse; oral; E7820 50 mg/kg twice a day, erlotinib 100 mg/kg once a day, 2 weeks; Day 1 = first administration
# Method: as §1, with “Human non-small-cell lung cancer cell line A549 (purchased from Dainippon Pharmaceutical) was cultured in RPMI1640 (containing 10% FBS) in a 5% carbon dioxide incubator at 37° C. to about 80% confluence, and the cells were collected with trypsin-EDTA. Using” for “Using”, “buffer containing 50% matrigel,” for “buffer,”, “Seventeen” for “Eight”, “erlotinib” for “gefitinib”, “100” for “75”
# as §2, §3
# [4] = test system: human renal cancer cell line (ACHN); assay: E7820 and cetuximab in subcutaneous transplant model of ACHN; format: in vivo; conditions: ACHN s.c. in nude mouse; E7820 oral 50 mg/kg twice a day, cetuximab i.p. 100 mg/kg twice a week, 2 weeks; Day 1 = first administration
# Method: Human renal cancer cell line ACHN (obtained from Dainippon Pharmaceutical) was cultured in RPMI1640 (containing 10% FBS) in a 5% carbon dioxide incubator at 37° C. to about 80% confluence, and the cells were collected with trypsin-EDTA. Using a phosphate buffer, 1×10^8 cells/mL suspension was prepared, and 0.1 mL each of the resulting cell suspension was subcutaneously transplanted to a nude mouse at the side of its body.
# Tumor Volume TV=Major axis of tumor(mm)×(Minor axis of tumor)^2 (mm^2)/2
# [5] = test system: human colon cancer cell line (WiDr); assay: E7820 and cetuximab in subcutaneous transplant model of WiDr; format: in vivo; conditions: WiDr s.c. in nude mouse; E7820 oral 50 mg/kg twice a day, cetuximab i.p. 100 mg/kg twice a week, 2 weeks; Day 1 = first administration
# Method: Human colon cancer cell line WiDr (obtained from Dainippon Pharmaceutical) was cultured in RPMI1640 (containing 10% FBS) in a 5% carbon dioxide incubator at 37° C. to about 80% confluence, and the cells were collected with trypsin-EDTA. Using a phosphate buffer, 5×10^7 cells/mL suspension was prepared, and 0.1 mL each of the resulting cell suspension was subcutaneously transplanted to a nude mouse at the side of its body.
compound,measurement,setting,value
"O=C(NS(=O)(=O)c1ccc(Br)s1)c1ccc(Cl)cc1Cl [LY573636, N-(2,4-dichlorobenzoyl)-5-bromothiophene-2-sulfonamide]","similarity of changes in gene expression (cosine correlation, cluster analysis) among E7070, E7820, LY186641, LY295501, LY573636 and CQS",HCT116 cells,very similar genetic alterations
"O=C(Nc1ccc(Cl)c(Cl)c1)NS(=O)(=O)c1ccc2c(c1)CCO2 [LY295501, N-[[(3,4-dichlorophenyl)amino]carbonyl]-2,3-dihydrobenzofuran-5-sulfonamide]","similarity of changes in gene expression (cosine correlation, cluster analysis) among E7070, E7820, LY186641, LY295501, LY573636 and CQS",HCT116 cells,very similar genetic alterations
"Nc1ccc(S(=O)(=O)Nc2cnc3c(Cl)cccc3n2)cc1 [CQS, 2-sulfanylamide-5-chloroquinoxaline]","similarity of changes in gene expression (cosine correlation, cluster analysis) among E7070, E7820, LY186641, LY295501, LY573636 and CQS",HCT116 cells,very similar genetic alterations
"O=C(Nc1ccc(Cl)cc1)NS(=O)(=O)c1ccc2c(c1)CCC2 [LY186641, N-[[(4-chlorophenyl)amino]carbonyl]-2,3-dihydro-1H-indene-5-sulfonamide]","similarity of changes in gene expression (cosine correlation, cluster analysis) among E7070, E7820, LY186641, LY295501, LY573636 and CQS",HCT116 cells,very similar genetic alterations
"NS(=O)(=O)c1ccc(S(=O)(=O)Nc2cccc3c(Cl)c[nH]c23)cc1 [E7070, N-(3-chloro-1H-indole-7-yl)-4-sulfamoylbenzenesulfonamide]","similarity of changes in gene expression (cosine correlation, cluster analysis) among E7070, E7820, LY186641, LY295501, LY573636 and CQS",HCT116 cells,very similar genetic alterations
same,IC50,HCT116-C9,127 nM
"COc1cc2ncnc(Nc3ccc(F)c(Cl)c3)c2cc1OCCCN1CCOCC1 [Gefitinib, 4-(3-chloro-4-fluorophenylamino)-7-methoxy-6-(3-(4-morpholino)propoxy-quinazoline), reference compound]",Relative tumor volume on Day 15 Average ± standard deviation,[1],0.36 ± 0.12
same,Relative tumor volume on Day 22 Average ± standard deviation,[2],2.26 ± 0.59
"C#Cc1cccc(Nc2ncnc3cc(OCCOC)c(OCCOC)cc23)c1 [Erlotinib, 4-(3-ethynylphenylamino)-6,7-bis(2-methoxyethoxy)-quinazoline, reference compound]",Relative tumor volume on Day 15 Average ± standard deviation,[3],1.94 ± 0.19
"Cc1ccc(NS(=O)(=O)c2cccc(C#N)c2)c2[nH]cc(C#N)c12 [E7820, N-(3-cyano-4-methyl-1H-indole-7-yl)-3-cyanobenzenesulfonamide]",Relative tumor volume on Day 15 Average ± standard deviation,[1],2.57 ± 0.41
same,Relative tumor volume on Day 22 Average ± standard deviation,[2],3.69 ± 0.68
same,"similarity of changes in gene expression (cosine correlation, cluster analysis) among E7070, E7820, LY186641, LY295501, LY573636 and CQS",HCT116 cells,very similar genetic alterations
same,Relative tumor volume on Day 15 Average ± standard deviation,[3],2.62 ± 0.07
same,Relative tumor volume on Day 15 Average ± standard deviation,[4],1.3 ± 0.2
same,Relative tumor volume on Day 15 Average ± standard deviation,[5],3.3 ± 0.6
